Data: PMC7143261 (Foods, 2020)

Columns and labels:
in vivo = conditions: Sprague Dawley, rat, plasma, po, 50 ug/kg
[1] = cited from earlier work
[2] = Plasmatic antioxidant capacity by ORAC after treatment; assay type: in vivo, Sprague Dawley rats; conditions: 90 min after oral 50 µg synthetic melatonin/kg
Description: (§1) Phytochemicals and metabolites were isolated using SPE.
The above plasma samples were used to determine the radical scavenging activity via the ORAC method using fluorescein as a fluorescence probe. The assay was performed at 37 °C in 75 mM phosphate buffer (pH 7.4). The reaction mixture (200 μL) contained fluorescein (70 nM), 2,2-azobis (2-methyl-propionamidine)-dihydrochloride (12 mM), and samples (Trolox or samples). Fluorescence was read at 485/520 nm, excitation/emission, respectively. Black 96-well untreated microplates (PS Balck, Porvair, Leatherhead, UK) were used. The fluorescence signal was measured every minute for 80 min after automatic shaking. All reaction mixtures were prepared in triplicate, running them at least three times independently. Fluorescence was normalized to the oxidation control (phosphate buffer) and stability control (no antioxidant). The ORAC values were expressed as mM Trolox equivalents (mM TE) according to the protocol previously described.

[3] = Plasma total phenolic compounds (Folin-Ciocalteu) after treatment; assay type: in vivo, Sprague Dawley rats; conditions: 90 min posttreatment, 50 µg melatonin/kg
Description: as §1
Samples (10 μL) were added to 150 μL of Folin-Ciocalteu reagent (diluted 1:15, v/v in Milli-Q water). After exactly 3 min, 20% Na2CO3 (50 μL) was added to each well. After 120 min at room temperature, the absorbance of the blue complex was measured at 760 nm using a microplate reader. The concentration of total phenolic compounds was expressed as mg GAE/mL.

[4] = Bioavailability study: plasmatic melatonin 90 min after treatment (ELISA); conditions: 90 min after oral 50 µg synthetic melatonin/kg
[5] = Pharmacokinetic study of plasma melatonin after single oral dose of lentil sprouts extract
[6] = Plasmatic serotonin after treatment (ELISA); assay type: in vivo, Sprague Dawley rats; conditions: 90 min after oral 50 µg melatonin/kg
[7] = Plasmatic antioxidant capacity by FRAP after treatment; assay type: in vivo, Sprague Dawley rats; conditions: 90 min after oral 50 µg melatonin/kg
Description: as §1
The plasma samples were also used to assess the reducing antioxidant potential using the FRAP assay, as previously described. Briefly, 300 μL of a working FRAP reagent [acetate buffer 0.3 M pH 3.6, 10 mM TPTZ in 40 mM HCl and 20 mM FeCl3·6H2O (10:1:1) (v/v/v)] were tempered to 37 °C, and then 10 μL of plasma samples were added. The absorbance was taken at 593 nm against reagent blank after 10 min. FRAP values were calculated and reported as µM Trolox equivalents (µM TE).

[8] = Sprague Dawley, rat, plasma, po, 50 ug/kg
[9] = oral lentil sprouts, 50 µg melatonin/kg

COc1ccc2[nH]cc(CCNC(C)=O)c2c1 [melatonin, N-acetyl-5-methoxytryptamine]
Cmax (in vivo): 0.0454 ± 0.0035 ng/mL
Tmax (in vivo): 1.5 h
time of absorption in the gastrointestinal tract post-oral administration [1]: 45 min
increment of plasmatic antioxidant capacity (ORAC) vs the fasting group [2]: 32%
change of TPC concentration in plasma [3]: nonsignificant
plasmatic melatonin concentration lower than that of the Lentil Sprouts group [4]: 22%
half-life ([5]; Sprague Dawley, rat, in vivo, po, 50 ug/kg): 1.82 ± 0.217 h
CL/F [5, 8]: 330 L/h/kg
half-life [5, 8]: ~1.67 h
k el [5, 8]: 0.000108 s⁻¹
MRT inf ([5]; Sprague Dawley, rat, plasma, po, 50 ug/kg, MRT 0-∞, oral lentil sprouts, 50 µg melatonin/kg): ~3.33 h
time of maximum plasma melatonin concentration postadministration ([5]; oral lentil sprouts extract, 50 µg melatonin/kg): 1.5 h
AUC 0-t /dose [5, 9]: 131.2 ± 19.3 (pg/mL min)/(μg/kg)
AUC 0-∞ [5, 9]: 9381 ± 2008 pg·min/mL
AUMC 0-∞ [5, 9]: 1897356 ± 589030 pg/mL min^2
Cl/F [5, 9]: 0.33 ± 0.07 (μg/kg)/(pg/mL)/h
MRT 0-∞ [5, 9]: 3.323 ± 0.33 h
VD/F [5, 9]: 0.85 ± 0.08 (μg/kg)/(pg/mL)
volume of distribution (VD/F) [5, 9]: 0.85 L/g
AUC 0-t ([5]; oral lentil sprouts, 50 µg melatonin/kg, 0-240 min): 6560 ± 963 pg·min/mL
enhancement of plasmatic serotonin concentration in contrast to the Fasting group [6]: 2.7 fold
increase of plasmatic antioxidant capacity (FRAP) [7]: 4%
